Positions count from the first letter of the chain named.
Experiments:
Assay type in all cases: cell-based
[1] = test system: LNCaP FGC cells; assay: Inhibition of proliferation of LNCaP cells (WST-8); details: Homo sapiens, LNCaP, 96 h, LNCaP FGC cells, 96 hours, WST-8 absorbance at 450 nm; read-out: IC50 for inhibiting the proliferation of LNCaP cells
Protocol: The cells were cultured in a cell culture incubator with 5% CO2 at 37° C. overnight. […] On the sixth day, 96 well plates were taken out, and 20 μL of WST-8 (Beytime, C0040) reagent was added to each well.

[2] = target: T1, AR protein (Homo sapiens, UniProt P10275, T878A); assay: Degradation of AR protein in LNCaP cells (Western blot); details: LNCaP cells, 8 hours, Western blot grayscale, GAPDH internal reference; for inhibition at 0.01 µM: compound 10 nM, read-out: Degradation rates of the AR protein in LNCaP cells, 10 nM (%); for inhibition at 0.1 µM: compound 100 nM, read-out: Degradation rates of the AR protein in LNCaP cells, 100 nM (%)
T1 construct: degradation activity of the compounds disclosed in the present disclosure on AR protein in LNCaP cells; host or cells: LNCaP FGC
T1 sequence (P10275 1-920 T878A): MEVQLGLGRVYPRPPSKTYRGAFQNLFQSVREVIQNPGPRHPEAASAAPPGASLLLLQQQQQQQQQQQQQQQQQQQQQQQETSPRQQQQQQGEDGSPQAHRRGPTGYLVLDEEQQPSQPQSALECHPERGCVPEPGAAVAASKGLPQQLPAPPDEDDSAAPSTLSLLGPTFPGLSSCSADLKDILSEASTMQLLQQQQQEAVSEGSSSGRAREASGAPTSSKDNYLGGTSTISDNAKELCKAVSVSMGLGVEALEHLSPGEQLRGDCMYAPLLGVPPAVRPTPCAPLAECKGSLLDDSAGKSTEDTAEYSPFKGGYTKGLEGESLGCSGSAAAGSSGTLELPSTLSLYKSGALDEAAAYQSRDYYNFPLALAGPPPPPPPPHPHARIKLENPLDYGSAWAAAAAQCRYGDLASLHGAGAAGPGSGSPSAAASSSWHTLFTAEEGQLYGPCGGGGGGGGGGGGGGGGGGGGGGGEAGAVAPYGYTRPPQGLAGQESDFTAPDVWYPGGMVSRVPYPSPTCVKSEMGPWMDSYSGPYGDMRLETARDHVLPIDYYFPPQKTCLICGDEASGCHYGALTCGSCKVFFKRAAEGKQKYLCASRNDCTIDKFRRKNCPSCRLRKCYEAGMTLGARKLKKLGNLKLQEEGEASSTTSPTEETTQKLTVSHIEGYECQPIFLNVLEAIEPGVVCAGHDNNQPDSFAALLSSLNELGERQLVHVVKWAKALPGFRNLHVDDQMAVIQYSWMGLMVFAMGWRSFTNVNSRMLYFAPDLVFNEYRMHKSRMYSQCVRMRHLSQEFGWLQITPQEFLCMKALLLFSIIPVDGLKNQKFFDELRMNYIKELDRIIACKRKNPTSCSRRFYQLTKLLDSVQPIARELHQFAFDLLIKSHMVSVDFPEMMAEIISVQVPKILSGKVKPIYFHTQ
How it was run: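 Percent AR degradation was derived from GAPDH-normalised Western blot band intensities (infrared detection) in LNCaP lysates.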

[3] = target: T2, AR protein (Homo sapiens, UniProt P10275); assay: Degradation of AR protein in VCaP cells (Western blot); details: 8 hours; for inhibition at 0.01 µM: compound at 10 nM, read-out: Degradation rate of the AR protein in VCaP cells, 10 nM (%); for inhibition at 0.1 µM: compound at 100 nM, read-out: Degradation rate of the AR protein in VCaP cells, 100 nM (%)
T2 construct: degradation activity of the compounds disclosed in the present disclosure on AR protein in VCaP cells; host or cells: VCaP
T2 sequence (P10275 1-920): T1 sequence (P10275 1-920 T878A) with A878T
How it was run: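 Western blot readout: AR band grayscale normalised to GAPDH, used to derive degradation rate. Lysates came from VCaP cells exposed to compound for 8 h, with solvent controls run in parallel.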

[4] = test system: VCaP cells; assay: Inhibition of proliferation of VCaP cells (WST-8); details: Homo sapiens; VCaP cells, 168 hours, WST-8 absorbance at 450 nm; read-out: IC50 for inhibiting the proliferation of VCaP cells
How it was run: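 Proliferation was read by WST-8 on day nine. Cells were VCaP FGC, seeded at 15000 cells per well in 10% FBS DMEM and kept at 37° C with 5% CO2.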

Structure (SMILES) | IC50 [1] | inhibition at 0.01 µM [2] | inhibition at 0.1 µM [2] | inhibition at 0.01 µM [3] | inhibition at 0.1 µM [3] | IC50 [4]
COc1cc(O[C@H]2CC[C@H](NC(=O)c3cnc(N4CCC(CN5CCC6(CC5)COc5c6ccc6c5C(=O)N(C5CCC(=O)NC5=O)C6=O)(OC)CC4)nc3)CC2)ccc1C#N (stereo partly drawn) [Compound 220] | 0.064 µM | 32% | 63% | 22% | 78% | 0.051 µM
CC1(CN2CCC3(CC2)COc2c3ccc3c2C(=O)N(C2CCC(=O)NC2=O)C3=O)CCN(c2ncc(C(=O)NC3CCC(Oc4ccc(C#N)c(Cl)c4)CC3)cn2)CC1 (stereo not drawn) [Compound 245] | 1.82 µM | 2% | 45% | 3% | 43% | 0.1 µM
N#Cc1ccc(O[C@H]2CC[C@H](NC(=O)c3ccc(N4CCC5(CCc6cc7c(cc6O5)C(=O)N(C5CCC(=O)NC5=O)C7=O)CC4)nn3)CC2)cc1Cl (stereo partly drawn) [Compound 28] | 3.9 µM | 58% | 60% | 9% | 35% | 6.2 µM
CCC1(CN2CCC3(CC2)COc2c3ccc3c2C(=O)N(C2CCC(=O)NC2=O)C3=O)CCN(c2ccc(C(=O)N[C@H]3C(C)(C)[C@H](Oc4ccc(C#N)c(OC)c4)C3(C)C)cc2)CC1 (stereo partly drawn) [Compound 286] | 3.72 µM | 22% | 34% | -33% | -9% | 0.057 µM
N#Cc1ccc(OC2CCC(NC(=O)c3ccc(N4CC5(CC(N6CCC7(CC6)COc6cc8c(cc6C7)C(=O)N(C6CCC(=O)NC6=O)C8=O)C5)C4)nn3)CC2)cc1Cl (stereo not drawn) [Compound 66] | 0.42 µM | 72% | 74% | 49% | 42% | 0.53 µM
N#Cc1ccc(O[C@H]2CC[C@H](NC(=O)c3ccc(N4CCC(C#N)(CN5CCC6(CC5)COc5c6ccc6c5C(=O)N(C5CCC(=O)NC5=O)C6=O)CC4)nn3)CC2)cc1Cl (stereo partly drawn) [Compound 227] | 0.17 µM | 45% | 62% | 24% | 60% | 0.03 µM
N#Cc1ccc(O[C@H]2CC[C@H](NC(=O)c3ccc(N4CCC(CC(=O)N5CCC6(CC5)COc5c6ccc6c5CN(C5CCC(=O)NC5=O)C6=O)CC4)nn3)CC2)cc1Cl (stereo partly drawn) [Compound 192] | 2.59 µM | 37% | 35% | 66% | 86% | 0.003 µM
COc1cc(O[C@H]2C(C)(C)[C@H](NC(=O)c3ccc(N4CCC(C)(CN5CCC6(CCc7cc8c(cc7O6)C(=O)N(C6CCC(=O)NC6=O)C8)CC5)CC4)cc3)C2(C)C)ccc1C#N (stereo partly drawn) [Compound 267] | 43.2 µM | 30% | 66% | 30% | 69% | 0.0045 µM
COc1cc(O[C@H]2CC[C@H](NC(=O)c3ccc(N4CCC(C#N)(CN5CCC6(CC5)COc5c6ccc6c5C(=O)N(C5CCC(=O)NC5=O)C6=O)CC4)nn3)CC2)ccc1C#N (stereo partly drawn) [Compound 229] | 0.33 µM | 49% | 59% | 33% | 73% | 0.015 µM
N#Cc1ccc(O[C@H]2CC[C@H](NC(=O)c3ccc(N4CCC(F)(CN5CCC6(CC5)COc5c6ccc6c5CN(C5CCC(=O)NC5=O)C6=O)CC4)cn3)CC2)cc1Cl (stereo partly drawn) [Compound 260] | 0.004 µM | 13% | 9% | 15% | 74% | 0.001 µM
C[C@H]1CN(c2ccc(C(=O)N[C@H]3CC[C@H](Oc4ccc(C#N)c(Cl)c4)CC3)nn2)C[C@@H]1CN1CCC2(CC1)COc1c2ccc2c1CN(C1CCC(=O)NC1=O)C2=O (stereo partly drawn) [Compound 212] | 0.32 µM | 79% | 70% | 60% | 82% | 0.001 µM
N#Cc1ccc(O[C@H]2CC[C@H](NC(=O)c3ccc(N4CCC(CN5CCC6(CC5)COc5cc7c(cc56)C(=O)N(C5CCC(=O)NC5=O)C7=O)CC4)nn3)CC2)cc1Cl (stereo partly drawn) [Compound 56] | 0.35 µM | 44% | 77% | 79% | 88% | 0.06 µM
COc1cc(O[C@H]2CC[C@H](NC(=O)c3ccc(N4CC(CN5CCC6(CC5)COc5c6ccc6c5C(=O)N(C5CCC(=O)NC5=O)C6=O)C4)nn3)CC2)ccc1C#N (stereo partly drawn) [Compound 251] | 0.15 µM | 45% | 37% | 48% | 73% | 0.27 µM
COc1cc(O[C@H]2C(C)(C)[C@H](NC(=O)c3ccc(N4CCC(CN5CCC6(CCc7cc8c(cc7O6)C(=O)N(C6CCC(=O)NC6=O)C8=O)CC5)CC4)cc3)C2(C)C)ccc1C#N (stereo partly drawn) [Compound 276] | 8.81 µM | 55% | 67% | -11% | 59% | 0.035 µM
N#Cc1ccc(O[C@H]2CC[C@H](NC(=O)c3ccc(N4CCC5(CC4)CC(N4CCC6(CCc7ccc8c(c7O6)CN(C6CCC(=O)NC6=O)C8=O)CC4)C5)nn3)CC2)cc1Cl (stereo partly drawn) [Compound 154] | 39.5 µM | 46% | 48% | 75% | 86% | 0.01 µM
CCOC1(CN2CCC3(CC2)COc2c3ccc3c2C(=O)N(C2CCC(=O)NC2=O)C3=O)CCN(c2ccc(C(=O)N[C@H]3CC[C@H](Oc4ccc(C#N)c(Cl)c4)CC3)nn2)CC1 (stereo partly drawn) [Compound 244] | 0.17 µM | -5% | 65% | 3% | 56% | 0.068 µM

Reference: patent US20260234157A1, “COMPOUND AND METHOD FOR TARGETED DEGRADATION OF ANDROGEN RECEPTOR” (Gan & Lee Pharmaceuticals Co., Ltd., priority 2023, published 2026)
